Experimental findings from patent publication US20240050428A1 (Cullgen (Shanghai), Inc., priority 2020, published 2024) are described below.

Test [1] has as its system MV4;11 cells. Nature of the test: Cell viability assay (CellTiter-Glo) in MV4;11 cells, alone or with gilteritinib. In kind it is cell-based. Particulars: Homo sapiens, MV4;11 cells, three days, CellTiter-Glo, read-out: MV4. On the technique in general: Cellular ATP, detected with luciferase, serves as a proxy for viable cell number.
Test [2] deals with MOLM-13 cells. Description: Cell viability assay (CellTiter-Glo) in MOLM-13 cells, alone or with gilteritinib. The format is cell-based. The conditions noted are these: Homo sapiens, MOLM-13 cells, three days, CellTiter-Glo.
[3] abbreviates: MV4-11, 72 h, compound alone (without gilteritinib), 11 IC50.
The mark [4] stands for this setting: MV4-11, 72 h, with gilteritinib 10 nM, 11 IC50 gilteritinib.
Setting [5] is: MOLM-13, 72 h, compound alone (without gilteritinib), read-out: MOLM-13 IC50.
[6] abbreviates: MOLM-13, 72 h, with gilteritinib 20 nM, read-out: MOLM-13 IC50 gilteritinib.
Setting [7] is: 72 h, compound alone (without gilteritinib), 11 IC50.
Where [8] appears, read: 72 h, with gilteritinib 10 nM, 11 IC50 gilteritinib.
Where [9] appears, read: 72 h, compound alone (without gilteritinib), read-out: MOLM-13 IC50.
Setting [10] is: 72 h, with gilteritinib 20 nM, read-out: MOLM-13 IC50 gilteritinib.

Read-outs that look alike come from different tables or passages of the source.

`O=C1CCC(N2C(=O)c3ccc(N4CCC(CCCn5cc(-c6cnc7ccccc7n6)cn5)CC4)cc3C2=O)C(=O)N1` (stereo not drawn) [GS-363, 2-(2,6-Dioxopiperidin-3-yl)-5-(4-(3-(4-(quinoxalin-2-yl)-1H-pyrazol-1-yl)propyl)piperidin-1-yl)isoindoline-1,3-dione]: the IC50 is 100 to 1000 nM in test [1] (setting [3]), 100 to 1000 nM in test [1] (setting [4]), above 1000 nM in test [2] (setting [5]) and above 1000 nM in test [2] (setting [6]).

For `O=C1CCC(N2C(=O)c3ccc(C4CN(CCCCn5cc(-c6cnc7ccccc7n6)cn5)C4)cc3C2=O)C(=O)N1` (stereo not drawn) [GS-364, 2-(2,6-Dioxopiperidin-3-yl)-5-(1-(4-(4-(quinoxalin-2-yl)-1H-pyrazol-1-yl)butyl)azetidin-3-yl)isoindoline-1,3-dione], the IC50 in test [1] (setting [3]), in test [1] (setting [4]), in test [2] (setting [5]) and in test [2] (setting [6]) was above 1000 nM each time.

As to `O=C1CCC(N2C(=O)c3ccc(NCCCc4cccc(-n5cc(-c6cnc7ccccc7n6)cn5)c4)cc3C2=O)C(=O)N1` (stereo not drawn) [GS-365, 2-(2,6-Ddioxopiperidin-3-yl)-5-((3-(3-(4-(quinoxalin-2-yl)-1H-pyrazol-1-yl)phenyl)propyl)amino)isoindoline-1,3-dione], the IC50 is above 1000 nM in test [1] (setting [3]), above 1000 nM in test [1] (setting [4]), above 1000 nM in test [2] (setting [5]) and 100 to 1000 nM in test [2] (setting [6]).

As to `O=C1CCC(N2C(=O)c3ccc(NCCNc4cccc(N5CCC(c6ccccc6)CC5)c4)cc3C2=O)C(=O)N1` (stereo not drawn) [GS-366, 2-(2,6-Dioxopiperidin-3-yl)-5-((2-((3-(4-phenylpiperidin-1-yl)phenyl)amino)ethyl)amino)isoindoline-1,3-dione], the IC50 in test [1] (setting [7]) was 10 to 100 nM; in test [1] (setting [8]), below 10 nM; in test [2] (setting [9]), 10 to 100 nM; in test [2] (setting [10]) it was below 10 nM.

`O=C1CCC(N2C(=O)c3ccc(N4CC(CCCCn5cc(-c6cnc7ccccc7n6)cn5)C4)cc3C2=O)C(=O)N1` (stereo not drawn) [GS-367, 2-(2,6-Dioxopiperidin-3-yl)-5-(3-(4-(4-(quinoxalin-2-yl)-1H-pyrazol-1-yl)butyl)azetidin-1-yl)isoindoline-1,3-dione]: the IC50 in test [1] (setting [3]), in test [1] (setting [4]), in test [2] (setting [5]) and in test [2] (setting [6]) was above 1000 nM throughout.

Take `O=C1CCC(N2C(=O)c3ccc(NCCCc4cccc(N5CCC(n6cc(-c7cnc8ccccc8n7)cn6)CC5)c4)cc3C2=O)C(=O)N1` (stereo not drawn) [GS-368, 2-(2,6-Dioxopiperidin-3-yl)-5-((3-(3-(4-(4-(quinoxalin-2-yl)-1H-pyrazol-1-yl)piperidin-1-yl)phenyl)propyl)amino)isoindoline-1,3-dione]: the IC50 in test [1] (setting [3]), in test [1] (setting [4]), in test [2] (setting [5]) and in test [2] (setting [6]) was below 10 nM in each case.

In the case of `O=C1CCC(N2C(=O)c3ccc(C#CCCCCn4cc(-c5cnc6ccccc6n5)cn4)cc3C2=O)C(=O)N1` (stereo not drawn) [GS-369, 2-(2,6-Dioxopiperidin-3-yl)-5-(6-(4-(quinoxalin-2-yl)-1H-pyrazol-1-yl)hex-1-yn-1-yl)isoindoline-1,3-dione], the IC50 in test [1] (setting [3]), in test [1] (setting [4]), in test [2] (setting [5]) and in test [2] (setting [6]) was above 1000 nM in each case.

Turning to `O=C1CCC(N2C(=O)c3ccc(NCCNc4cccc(N5CCC(c6nccs6)CC5)c4)cc3C2=O)C(=O)N1` (stereo not drawn) [GS-370, 2-(2,6-Dioxopiperidin-3-yl)-5-((2-((3-(4-(thiazol-2-yl)piperidin-1-yl)phenyl)amino)ethyl)amino)isoindoline-1,3-dione], the IC50 in test [1] (setting [7]), in test [1] (setting [8]), in test [2] (setting [9]) and in test [2] (setting [10]) was below 10 nM each time.

In the case of `O=C1CCC(N2C(=O)c3ccc(NCCCN4CC(n5cc(-c6cnc7ccccc7n6)cn5)C4)cc3C2=O)C(=O)N1` (stereo not drawn) [GS-371, 2-(2,6-Dioxopiperidin-3-yl)-5-((3-(3-(4-(quinoxalin-2-yl)-1H-pyrazol-1-yl)azetidin-1-yl)propyl)amino)isoindoline-1,3-dione], the IC50 in test [1] (setting [3]) was above 1000 nM; in test [1] (setting [4]), above 1000 nM; in test [2] (setting [5]), 100 to 1000 nM; in test [2] (setting [6]), 100 to 1000 nM.

Regarding `O=C1CCC(N2C(=O)c3ccc(NCCNc4cccc(N5CCN(c6ccccn6)CC5)c4)cc3C2=O)C(=O)N1` (stereo not drawn) [GS-372, 2-(2,6-Dioxopiperidin-3-yl)-5-((2-((3-(4-(pyridin-2-yl)piperazin-1-yl)phenyl)amino)ethyl)amino)isoindoline-1,3-dione], the IC50 was 10 to 100 nM in test [1] (setting [7]), below 10 nM in test [1] (setting [8]), below 10 nM in test [2] (setting [9]) and below 10 nM in test [2] (setting [10]).

On to `O=C1CCC(N2C(=O)c3ccc(NCCNC4CC(n5cc(-c6cnc7ccccc7n6)cn5)C4)cc3C2=O)C(=O)N1` (stereo not drawn) [GS-373, 2-(2,6-Dioxopiperidin-3-yl)-5-((2-((3-(4-(quinoxalin-2-yl)-1H-pyrazol-1-yl)cyclobutyl)amino)ethyl)amino)isoindoline-1,3-dione], for which the IC50 in test [1] (setting [7]), in test [1] (setting [8]), in test [2] (setting [9]) and in test [2] (setting [10]) was above 1000 nM in each case.

On to `O=C1CCC(N2Cc3cc(CCCCCCn4cc(-c5cnc6ccccc6n5)cn4)ccc3C2=O)C(=O)N1` (stereo not drawn) [GS-374, 3-(1-Oxo-5-(6-(4-(quinoxalin-2-yl)-1H-pyrazol-1-yl)hexyl)isoindolin-2-yl)piperidine-2,6-dione], for which the IC50 was 100 to 1000 nM in test [1] (setting [3]), above 1000 nM in test [1] (setting [4]), above 1000 nM in test [2] (setting [5]) and 100 to 1000 nM in test [2] (setting [6]).

`O=C1CCC(N2Cc3cc(CCCCCCCn4cc(-c5cnc6ccccc6n5)cn4)ccc3C2=O)C(=O)N1` (stereo not drawn) [GS-375, 3-(1-Oxo-5-(7-(4-(quinoxalin-2-yl)-1H-pyrazol-1-yl)heptyl)isoindolin-2-yl)piperidine-2,6-dione]: the IC50 is 100 to 1000 nM in test [1] (setting [3]), 10 to 100 nM in test [1] (setting [4]), above 1000 nM in test [2] (setting [5]) and 10 to 100 nM in test [2] (setting [6]).

Regarding `O=C1CCC(N2C(=O)c3ccc(NCCCCCCn4cc(-c5cnc6cccc(Cl)c6n5)cn4)cc3C2=O)C(=O)N1` (stereo not drawn) [GS-376, 5-((6-(4-(8-Chloroquinoxalin-2-yl)-1H-pyrazol-1-yl)hexyl)amino)-2-(2,6-dioxopiperidin-3-yl)isoindoline-1,3-dione], the IC50 was 100 to 1000 nM in test [1] (setting [3]), 10 to 100 nM in test [1] (setting [4]), above 1000 nM in test [2] (setting [5]) and 10 to 100 nM in test [2] (setting [6]).

On to `O=C1CCC(N2C(=O)c3ccc(NCCCCCCn4cc(-c5cnc6cccc(F)c6n5)cn4)cc3C2=O)C(=O)N1` (stereo not drawn) [GS-377, 2-(2,6-Dioxopiperidin-3-yl)-5-((6-(4-(8-fluoroquinoxalin-2-yl)-1H-pyrazol-1-yl)hexyl)amino)isoindoline-1,3-dione], for which the IC50 is 100 to 1000 nM in test [1] (setting [3]), 10 to 100 nM in test [1] (setting [4]), above 1000 nM in test [2] (setting [5]) and below 10 nM in test [2] (setting [6]).

As to `O=C1CCC(N2Cc3c(NC4CCC(Nc5cccc(N6CCC(n7cc(-c8cnc9ccccc9n8)cn7)CC6)c5)CC4)cccc3C2=O)C(=O)N1` (stereo not drawn) [GS-378, 3-(1-Oxo-4-((4-((3-(4-(4-(quinoxalin-2-yl)-1H-pyrazol-1-yl)piperidin-1-yl)phenyl)amino)cyclohexyl)amino)isoindolin-2-yl)piperidine-2,6-dione], the IC50 is 10 to 100 nM in test [1] (setting [3]), below 10 nM in test [1] (setting [4]), 10 to 100 nM in test [2] (setting [5]) and below 10 nM in test [2] (setting [6]).

Take `O=C1CCC(N2C(=O)c3ccc(NCCCCNC(=O)N4CCC(n5cc(-c6cnc7ccccc7n6)cn5)CC4)cc3C2=O)C(=O)N1` (stereo not drawn) [GS-379, N-(4-((2-(2,6-Dioxopiperidin-3-yl)-1,3-dioxoisoindolin-5-yl)amino)butyl)-4-(4-(quinoxalin-2-yl)-1H-pyrazol-1-yl)piperidine-1-carboxamide]: the IC50 was 100 to 1000 nM in test [1] (setting [3]), 10 to 100 nM in test [1] (setting [4]), above 1000 nM in test [2] (setting [5]) and 10 to 100 nM in test [2] (setting [6]).

Consider `Cc1nc(-c2cnc3ccccc3n2)cn1CCCCCCNc1ccc2c(c1)C(=O)N(C1CCC(=O)NC1=O)C2=O` (stereo not drawn) [GS-380, 2-(2,6-Dioxopiperidin-3-yl)-5-((6-(2-methyl-4-(quinoxalin-2-yl)-1H-imidazol-1-yl)hexyl)amino)isoindoline-1,3-dione], for which the IC50 in test [1] (setting [3]) was above 1000 nM; in test [1] (setting [4]), above 1000 nM; in test [2] (setting [5]), 100 to 1000 nM; in test [2] (setting [6]), 100 to 1000 nM.

On to `O=C1CCC(N2C(=O)c3ccc(NCCCCCCn4cc(-c5cnc6cccc(N7CCOCC7)c6n5)cn4)cc3C2=O)C(=O)N1` (stereo not drawn) [GS-381, 2-(2,6-Dioxopiperidin-3-yl)-5-((6-(4-(8-morpholinoquinoxalin-2-yl)-1H-pyrazol-1-yl)hexyl)amino)isoindoline-1,3-dione], for which the IC50 in test [1] (setting [3]) is above 1000 nM; in test [1] (setting [4]) it was 100 to 1000 nM; in test [2] (setting [5]) it was above 1000 nM; in test [2] (setting [6]), 10 to 100 nM.

In the case of `O=C1CCC(N2C(=O)c3ccc(NCCCCCCn4cc(-c5cnc6cccc(C7CCOCC7)c6n5)cn4)cc3C2=O)C(=O)N1` (stereo not drawn) [GS-382], the IC50 in test [1] (setting [3]) is above 1000 nM; in test [1] (setting [4]), above 1000 nM; in test [2] (setting [5]), above 1000 nM; in test [2] (setting [6]) it was 10 to 100 nM.

In the case of `CN1CCN(c2cccc3ncc(-c4cnn(CCCCCCNc5ccc6c(c5)C(=O)N(C5CCC(=O)NC5=O)C6=O)c4)nc23)CC1` (stereo not drawn) [GS-383, 2-(2,6-Dioxopiperidin-3-yl)-5-((6-(4-(8-(4-methylpiperazin-1-yl)quinoxalin-2-yl)-1H-pyrazol-1-yl)hexyl)amino)isoindoline-1,3-dione], the IC50 is above 1000 nM in test [1] (setting [3]), 100 to 1000 nM in test [1] (setting [4]), above 1000 nM in test [2] (setting [5]) and above 1000 nM in test [2] (setting [6]).
